# Results from PMC3559838 (PLoS ONE, 2013).
# Read-outs that look alike come from different tables or passages of the source.
# Columns and labels:
# [1] = system: CYP2C8; set-up: method as in protocol pharmaceutical information; conditions: ref protocol pharmaceutical information; cited from earlier work
# [2] = set-up: method as in protocol pharmaceutical information; conditions: ref protocol pharmaceutical information; cited from earlier work
# [3] = system: HCT116 colon cancer cells; set-up: method as in Plumb et al., 2003; Investigator's Brochure, 2004; conditions: HCT116 xenografts, 40 mg/kg/day IP once daily for 7 days; ref Plumb et al., 2003; Investigator's Brochure, 2004; cited from earlier work
# [4] = set-up: method as in Investigator's Brochure, 2004; conditions: arginine formulation, human blood ex vivo; ref Investigator's Brochure, 2004; cited from earlier work
# [5] = set-up: method as in Investigator's Brochure, 2004; conditions: following 5 or 7 days of treatment; ref Investigator's Brochure, 2004; cited from earlier work
# [6] = Pharmacokinetics after 30 min i.v. infusion, phase I trial in hepatocellular carcinoma patients; assay type: in vivo, human; conditions: for Cmax / AUC(0-t) / Tmax / clearance / half-life / Vd: human, iv, plasma; for Cmax: mean ± SD; for AUC(0-t): read-out: AUC0–24 h; for clearance: read-out: CL (clearance) (converted); for half-life: read-out: T1/2 (half-life at the elimination phase) (converted); for Vd: read-out: Vz (volume of distribution)
# Protocol: This multicentre phase I trial of belinostat was done in Hong Kong and Singapore. All patients provided written informed consent according to Good Clinical Practice guidelines, and the protocol was approved by the institutional review boards of Prince of Wales Hospital, Hong Kong and National University Hospital, Singapore.
# Venous blood samples had been collected in heparinized tubes. Collected blood samples were centrifuged at 3000 g for 10–15 min and the plasma (supernatant) was separated from the cell pellet and stored in plain tubes at –80°C till analysis. […] Briefly, vorinostat-G was used as the internal standard for belinostat-G. The mass spectrometer was operated in positive ion mode with the optimal mass transitions of belinostat-G: m/z 495>93 and vorinostat-G: m/z 441>232, respectively. The analytical method was well validated with good linearity (coefficient of determination, r^2≥0.999) in the range of 1–100 µM for belinostat-G.
# Pharmacokinetic parameters were estimated based on non-compartmental analysis model using WinNonlin software version 5.3 (Pharmsight, Sunnyvale, CA, USA). […] One way analysis of variance (ANOVA) was used to determine the significance among the genotypes with Tukey posthoc tests for adjustment for comparison between individual groups. A value of p<0.05 was considered to be significant.
# [7] = set-up: method as in Investigator's Brochure, 2004; conditions: dogs, ref Investigator's Brochure, 2004, cited from earlier work
# [8] = target: T1, UGT2B7 (Homo sapiens, UniProt P16662); experiment: UGT supersome screening; assay type: in vitro ADME; conditions: UGT2B7 supersomes, 10 µM belinostat, 37°C
# T1 construct: purchased BD Gentest
# T1 sequence (P16662 24-529): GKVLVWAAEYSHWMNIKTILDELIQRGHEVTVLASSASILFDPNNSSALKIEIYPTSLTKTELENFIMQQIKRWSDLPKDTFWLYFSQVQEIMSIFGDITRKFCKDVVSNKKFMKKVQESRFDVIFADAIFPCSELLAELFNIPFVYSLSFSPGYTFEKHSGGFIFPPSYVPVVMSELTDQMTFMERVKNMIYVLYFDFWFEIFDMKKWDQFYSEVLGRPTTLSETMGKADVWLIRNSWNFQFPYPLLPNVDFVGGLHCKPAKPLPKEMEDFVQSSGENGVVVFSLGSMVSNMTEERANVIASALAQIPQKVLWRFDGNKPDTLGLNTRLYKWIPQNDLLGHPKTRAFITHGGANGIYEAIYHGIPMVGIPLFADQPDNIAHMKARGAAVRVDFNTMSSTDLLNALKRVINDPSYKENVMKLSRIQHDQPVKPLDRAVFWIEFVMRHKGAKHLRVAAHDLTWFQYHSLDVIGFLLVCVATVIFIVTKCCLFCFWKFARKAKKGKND
# Protocol: (§1) A typical incubation consisted of 50 µg of UGT, 2 mM UDPGA (UGT Reaction Solution A), 50 mM Tris-HCl, 8 mM MgCl2 and 0.025 mg/ml alamethicin (UGT Reaction Solution B) in a final incubation volume of 100 µL. Before the addition of substrate, the incubation mixture was prewarmed and equilibrated for 5 min at 37°C. […] The incubation mixture was vortexed and centrifuged (10,060 g) at 4°C for 10 min, and the supernatants were analyzed. Insect microsomes without UGT cDNA served as negative control. […] Incubations were performed as described above. Three independent experiments were performed for kinetic analysis.
# [9] = target: T2, UGT1A8 (Homo sapiens, UniProt Q9HAW9); experiment: UGT supersome screening; assay type: in vitro ADME; conditions: UGT1A8 supersomes, 10 µM belinostat, 37°C
# T2 construct: purchased BD Gentest
# T2 sequence (Q9HAW9 26-530): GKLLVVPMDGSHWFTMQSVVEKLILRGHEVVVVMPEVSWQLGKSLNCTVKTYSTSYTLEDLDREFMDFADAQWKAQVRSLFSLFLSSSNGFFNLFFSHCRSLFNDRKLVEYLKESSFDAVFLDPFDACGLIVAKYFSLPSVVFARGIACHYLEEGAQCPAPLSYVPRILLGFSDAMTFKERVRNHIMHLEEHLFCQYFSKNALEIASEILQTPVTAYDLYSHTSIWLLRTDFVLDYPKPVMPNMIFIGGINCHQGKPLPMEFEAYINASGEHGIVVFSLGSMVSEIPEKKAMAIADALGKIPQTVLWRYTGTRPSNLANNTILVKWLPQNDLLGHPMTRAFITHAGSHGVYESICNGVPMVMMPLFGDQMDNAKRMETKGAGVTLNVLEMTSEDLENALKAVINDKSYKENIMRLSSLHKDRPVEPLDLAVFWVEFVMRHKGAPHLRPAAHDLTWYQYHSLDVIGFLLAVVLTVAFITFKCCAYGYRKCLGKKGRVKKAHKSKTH
# Protocol: as §1
# [10] = target: T3, UGT2B4 (Homo sapiens, UniProt P06133); experiment: UGT supersome screening; assay type: in vitro ADME; conditions: UGT2B4 supersomes, 10 µM belinostat, 37°C
# T3 construct: purchased BD Gentest
# T3 sequence (P06133 24-528): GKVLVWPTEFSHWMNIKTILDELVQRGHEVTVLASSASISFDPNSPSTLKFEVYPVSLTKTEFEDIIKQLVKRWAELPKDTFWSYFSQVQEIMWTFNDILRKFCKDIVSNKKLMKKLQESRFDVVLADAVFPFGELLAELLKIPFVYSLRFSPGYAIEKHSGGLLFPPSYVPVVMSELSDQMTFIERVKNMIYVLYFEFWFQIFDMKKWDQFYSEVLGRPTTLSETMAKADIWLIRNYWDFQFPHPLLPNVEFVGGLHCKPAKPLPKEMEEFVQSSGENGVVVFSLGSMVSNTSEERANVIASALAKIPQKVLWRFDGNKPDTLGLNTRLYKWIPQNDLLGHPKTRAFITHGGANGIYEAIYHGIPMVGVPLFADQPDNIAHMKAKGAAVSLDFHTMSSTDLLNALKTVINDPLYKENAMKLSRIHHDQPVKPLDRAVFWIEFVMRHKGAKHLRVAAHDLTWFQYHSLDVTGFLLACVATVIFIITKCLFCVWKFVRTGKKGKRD
# Protocol: as §1
# [11] = target: T4, UGT1A3 (Homo sapiens, UniProt P35503); experiment: UGT supersome screening; assay type: in vitro ADME; conditions: UGT1A3 supersomes, 10 µM belinostat, 37°C
# T4 construct: purchased BD Gentest
# T4 sequence (P35503 29-534): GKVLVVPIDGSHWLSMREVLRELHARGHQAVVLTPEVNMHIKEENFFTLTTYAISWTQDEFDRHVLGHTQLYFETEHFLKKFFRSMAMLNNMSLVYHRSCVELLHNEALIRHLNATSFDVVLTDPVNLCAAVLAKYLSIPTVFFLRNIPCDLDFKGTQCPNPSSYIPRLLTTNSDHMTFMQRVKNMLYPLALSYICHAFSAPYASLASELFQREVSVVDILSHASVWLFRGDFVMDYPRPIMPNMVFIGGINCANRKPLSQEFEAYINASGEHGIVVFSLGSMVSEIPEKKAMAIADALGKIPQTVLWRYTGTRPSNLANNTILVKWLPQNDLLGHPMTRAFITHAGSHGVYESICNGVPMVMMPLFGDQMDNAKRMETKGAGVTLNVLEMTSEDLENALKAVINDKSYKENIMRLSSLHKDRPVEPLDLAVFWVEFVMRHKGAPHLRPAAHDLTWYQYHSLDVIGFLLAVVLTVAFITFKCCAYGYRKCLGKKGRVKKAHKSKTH
# Protocol: as §1
# [12] = human, in vivo; cited from earlier work
# [13] = set-up: method as in Investigator's Brochure, 2004; conditions: mice, single IP injection of 20 mg/kg, ref Investigator's Brochure, 2004, cited from earlier work
# [14] = set-up: method as in protocol pharmaceutical information; conditions: ref protocol pharmaceutical information, cited from earlier work
# [15] = set-up: method as in Investigator's Brochure, 2004; conditions: rats and dogs; ref Investigator's Brochure, 2004; cited from earlier work
# [16] = system: histone H4 acetylation in peripheral blood mononuclear cells (PBMC) and tumor tissue; set-up: method as in Plumb et al., 2003; conditions: ref Plumb et al., 2003, cited from earlier work
# [17] = system: human A2780 ovarian cancer cells; set-up: method as in Plumb et al., 2003; Investigator's Brochure, 2004; conditions: A2780 xenografts, 10 mg/kg/day IP once daily for 7 days; ref Plumb et al., 2003; Investigator's Brochure, 2004; cited from earlier work
# [18] = system: CYP1A2; set-up: method as in protocol pharmaceutical information; conditions: ref protocol pharmaceutical information; cited from earlier work
# [19] = 600 mg/m^2, 30 min i.v. infusion
# [20] = 900 mg/m^2, 30 min i.v. infusion
# [21] = 1200 mg/m^2, 30 min i.v. infusion
# [22] = 1400 mg/m^2, 30 min i.v. infusion
compound,measurement,setting,value
"O=C(/C=C/c1cccc(S(=O)(=O)Nc2ccccc2)c1)NO [Belinostat, N-hydroxy-3-(phenylsulphamoylphenyl) acrylamide]",CYP2C8 inhibition,[1],weak to moderate inhibitor
same,light stability,[2],no obvious light instability
same,tumor growth,[3],Growth inhibition was also observed
same,hemolysis,[4],No hemolysis
same,drug accumulation,[5],no clear indication of drug accumulation
same,coefficient of variation of Clearance (CL),[6]; 1200 mg/m^2,29.0%
same,coefficient of variation of Clearance (CL),[6]; 1400 mg/m^2,30.6%
same,dose linearity of pharmacokinetics,[6]; doses ranging from 600 to 1400 mg/m^2,linear pharmacokinetics
same,Cmax,[6]; [19],88.2 ± 8.5 µM
same,Cmax,[6]; [20],98.5 ± 29.7 µM
same,Cmax,[6]; [21],154 ± 50.4 µM
same,Cmax,[6]; [22],174 ± 48.3 µM
same,AUC(0-t),[6]; 600 mg/m^2,61.3 ± 1.2 µM·h
same,AUC(0-t),[6]; 900 mg/m^2,70 ± 17.3 µM·h
same,AUC(0-t),[6]; 1200 mg/m^2,113 ± 37.1 µM·h
same,AUC(0-t),[6]; 1400 mg/m^2,149 ± 46.2 µM·h
same,Tmax,[6]; [19],0.33 ± 0.14 h
same,clearance,[6]; [19],877 mL/min
same,half-life,[6]; [19],3.54 ± 0.34 h
same,Vd,[6]; [19],268 ± 26.6 L
same,Tmax,[6]; [20],0.42 ± 0.14 h
same,clearance,[6]; [20],1180 mL/min
same,half-life,[6]; [20],4.07 ± 0.39 h
same,Vd,[6]; [20],409 ± 76.7 L
same,Tmax,[6]; [21],0.64 ± 0.1 h
same,clearance,[6]; [21],910 mL/min
same,half-life,[6]; [21],4.14 ± 0.42 h
same,Vd,[6]; [21],305 ± 186 L
same,Tmax,[6]; [22],0.4 ± 0.14 h
same,clearance,[6]; [22],883 mL/min
same,half-life,[6]; [22],3.54 ± 0.5 h
same,Vd,[6]; [22],279 ± 121 L
same,"systemic and local irritation adverse events (lymphopenia, lymphoid atrophy, injection site reactions)","[7]; 50 mg/kg/day, arginine formulation",mild and fully reversible
same,no-observable-effect-level (NOEL),[7]; one study,10 mg/kg/day
same,metabolism by UGT isoform,[8],less than 3%
same,metabolism by UGT isoform,[9],less than 3%
same,metabolism by UGT isoform,[10],less than 3%
same,metabolism by UGT isoform,[11],less than 3%
same,maximum tolerable dose,[12],1200 mg/m^2
same,mean plasma concentration,[13]; after 0.5 hour,3.3 ± 0.7 µM
same,mean plasma concentration,[13]; by 2 hours,0.042 ± 0.002 µM
same,Approximate Solubility,"[14]; 1,2-propanediol",~ 0.2 mg/mL
same,Approximate Solubility,[14]; ethanol,> 200 mg/mL
same,Approximate Solubility,[14]; polyethylene glycol 400,~ 1.5 mg/mL
same,elimination routes of PXD101 and its metabolites,[15],urinary and fecal routes
same,histone H4 acetylation in PBMC,[16]; 1 and 2 hours after a single IP injection of 40 mg/kg,Hyperacetylated histone H4 was detected
same,time at which acetylation returned to baseline levels,"[16]; PBMC, single IP injection of 40 mg/kg",≤ 3 h
same,dose with marked acetylation in both PBMCs and tumor tissue,[16]; mice,≥ 10 mg/kg
same,tumor growth,[17],Delay of tumor growth was observed
same,CYP1A2 induction,[18],moderate inducer
